Results reported in patent US20180344690A1, “Methods and Formulation for Enhancing Response to Radiotherapy” (The Board of Trustees of the Leland Stanford Junior …, priority 2017, published 2018).
Like-named read-outs stand apart in the source and are kept apart here.

What was measured:
[1] = tested on: CD34+ cells; details: cited from earlier work
[2] = up to 320 μg/kg, healthy volunteers; cited from earlier work
[3] = molecular target: CXCR4 (Homo sapiens, UniProt P61073); details: cited from earlier work
Chain of CXCR4 (P61073 whole entry): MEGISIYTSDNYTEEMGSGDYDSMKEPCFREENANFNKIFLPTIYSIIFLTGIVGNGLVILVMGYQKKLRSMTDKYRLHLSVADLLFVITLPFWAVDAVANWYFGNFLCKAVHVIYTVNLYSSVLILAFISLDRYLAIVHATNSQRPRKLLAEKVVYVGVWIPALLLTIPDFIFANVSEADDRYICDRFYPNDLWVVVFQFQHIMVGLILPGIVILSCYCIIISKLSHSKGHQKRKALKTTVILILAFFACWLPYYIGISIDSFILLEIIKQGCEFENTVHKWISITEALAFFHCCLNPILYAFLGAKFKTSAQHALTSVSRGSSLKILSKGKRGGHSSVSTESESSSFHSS

[4] = tested on: MM; details: cited from earlier work
[5] = cited from earlier work
[6] = cited from earlier work; for mean AUC from time 0 to 24 hours postdose, higher than in subjects with normal renal function: single 240 μg/kg SC
[7] = clinical; details: human, in vivo
Excerpt: (§1) Patients underwent dynamic susceptibility contrast perfusion MRI (DSC-MRI) for quantification of relative cerebral blood volume (rCBV) values by region-of-interest analysis.

[8] = tested on: glioblastoma; test: clinical
Excerpt: as §1

[9] = tested on: CD34+ cell mobilization; details: cited from earlier work
[10] = tested on: peripheral blood (PB) CD34+ counts; details: cited from earlier work; for absolute CD34+ cell count (mean+/−SE): all patients
[11] = tested on: AML; details: cited from earlier work
[12] = cited from earlier work; remark: listed apart in the source
[13] = tested on: AML and MDS; details: cited from earlier work
[14] = Preclinical animal toxicology studies; details: in vivo
[15] = tested on: CML; details: cited from earlier work
[16] = tested on: human serum albumin and 1-acid glycoprotein; details: cited from earlier work
[17] = tested on: AML; details: cited from earlier work; remark: listed apart in the source
[18] = tested on: BCR-ABL(+) leukemia (CML); details: cited from earlier work
[19] = tested on: CD34+ stem cells; details: cited from earlier work
[20] = tested on: APL; details: cited from earlier work
[21] = in vivo; details: human
[22] = tested on: chronic lymphocytic leukemia (CLL); details: cited from earlier work
[23] = cells collected by Plerixafor plus G-CSF
[24] = 23 evaluable patients, with bortezomib

Compound: c1cc(CN2CCCNCCNCCCNCC2)ccc1CN1CCCNCCNCCCNCC1 [Plerixafor]
- patients achieving ≥5×10^6 CD34+ cells/kg ([1]; Plerixafor plus G-CSF compared to G-CSF alone): More patients
- CD34+ cells mobilized in patients who mobilized poorly with G-CSF alone ([1]; Plerixafor plus G-CSF, nine patients, all patients): > 2×10^6 CD34+ cells/kg
- median day of platelet engraftment [1, 23]: 17 days
- median day of polymorphonuclear leukocyte (PMN) engraftment [1, 23]: 10 days
- drug-related serious or unexpected adverse effects ([1]; human, in vivo): no drug-related serious adverse effects or unexpected adverse effects
- pharmacokinetics over the tested dose range [2]: linear pharmacokinetics
- inhibition of the binding of SDF-1a (CXCL12) to CXCR4 [3]: reversible inhibitor
- MR [4, 24]: 13%
- complete response (CR) [4, 24]: 4%
- overall response rate (including MR) [4, 24]: 22%
- progressive disease (PD) as best response [4, 24]: 13%
- very good partial response (VGPR) [4, 24]: 4%
- Dose limiting toxicities including insomnia, restlessness, and psychosis ([4]; dose level 6 (Plerixafor 400 μg/kg and bortezomib 1.3 mg/m^2)): observed in two patients
- de-adhesion of MM cells and accessory cells ([4]; in vivo): transient de-adhesion of MM cells and accessory cells in vivo in most of the patients
- Grade 3 anemia ([4]; with bortezomib): 10%
- Grade 3 bone fracture due to myeloma bone disease ([4]; with bortezomib): 10%
- Grade 3 hypercalcemia ([4]; with bortezomib): 10%
- Grade 3 hyponatremia ([4]; with bortezomib): 10%
- Grade 3 hypophosphatemia ([4]; with bortezomib): 20%
- Grade 3 lymphopenia ([4]; with bortezomib): 40%
- grade 4 toxicities ([4]; with bortezomib): no grade 4 toxicities
- tolerability of the combination ([4]; with bortezomib): well tolerated
- adverse events that occurred more frequently with Plerixafor than placebo ([5]; G-CSF plus Plerixafor 240 μg/kg SC): insomnia, headache, dizziness, diarrhea, nausea, flatulence, abdominal pain, vomiting, abdominal distention, dry mouth, stomach discomfort, constipation, dyspepsia, hypoaesthesia oral, arthralgia, musculoskeletal pain, hyperhidrosis, erythema, injection site reactions, fatigue, and malaise
- tolerability ([5]; Plerixafor 240 μg/kg in conjunction with G-CSF, NHL or MM): well-tolerated
- PMN and PLT engraftment of mobilized hematopoietic stem cells ([5]; Plerixafor and G-CSF compared to G-CSF alone, both trials): equally capable of prompt and durable PMN and PLT engraftment
- effect of renal impairment on maximal plasma concentrations ([6]; human, in vivo): no effect
- mean AUC from time 0 to 24 hours postdose, higher than in subjects with normal renal function ([6]; mild renal impairment): 7%
- mean AUC from time 0 to 24 hours postdose, higher than in subjects with normal renal function ([6]; moderate renal impairment): 32%
- mean AUC from time 0 to 24 hours postdose, higher than in subjects with normal renal function ([6]; severe renal impairment): 39%
- safety profile ([6]; subjects with renal impairment vs controls): similar
- Plerixafor clearance ([6]; subjects with renal impairment, positively correlated with creatinine clearance): reduced
- circulating neutrophils (days 4, 8, 15, 22, 29 during infusion vs Screening (FIG. 8A)): increase of neutrophils
- circulating monocytes (days 4, 8, 15, 22, 29 during infusion vs Screening (FIG. 8B)): increase in monocytes
- concentration at 7 days [7]: ≥ 100 ng/mL
- rCBV in the tumor bed compared to the postoperative pre-RT scan ([8]; DSC-MRI at 1 and 6 months post-RT, P<0.02, one way ANOVA): lower rCBV
- patients alive ([8]; currently): 7 of 9
- dose limiting toxicities (DLTs) ([8]; human, in vivo): no DLTs observed
- longest survival since diagnosis ([8]; human, in vivo): 18 months
- recommended phase II dose ([8]; human, in vivo, iv, 4 weeks): 16.6 µg/kg/h
- most frequently reported adverse effects ([9]; human, in vivo): injection site reactions, gastrointestinal (GI) effects, paresthesias, and headaches
- augmentation of CD34+ cell mobilization by G-CSF ([9]; on average): 3.8 fold
- safety and tolerability ([9]; single SC dose 160 or 240 μg/kg alone or added to G-CSF): generally safe and well-tolerated
- total white blood cell (WBC) and peripheral blood (PB) CD34+ counts ([10]; 4 and 6 hours following a single injection): rapid and statistically significant increase
- absolute CD34+ cell count (mean+/−SE) ([10]; 4 hours after injection, baseline 2.6+/−0.7/μL, P=0.002): 15.6 ± 3.9 µL⁻¹
- absolute CD34+ cell count ([10]; 4 hours, 160 μg/kg group): 11.3 ± 2.7 µL⁻¹
- absolute CD34+ cell count ([10]; 4 hours, 240 μg/kg group): 19.3 ± 6.9 µL⁻¹
- absolute CD34+ cell count (mean+/−SE) ([10]; 6 hours after injection, P=0.003): 16.2 ± 4.3 µL⁻¹
- absolute CD34+ cell count ([10]; 6 hours, 160 μg/kg group): 11.3 ± 2.5 µL⁻¹
- absolute CD34+ cell count ([10]; 6 hours, 240 μg/kg group): 20.4 ± 7.6 µL⁻¹
- toxicities ([10]; single injection 160 or 240 μg/kg): only grade 1 toxicities were observed
- early death due to complications from infection ([11]; 2 patients): 6%
- treatment failure due to persistent disease ([11]; 14 patients): 44%
- complete remission (CR+CRi) ([11]; 32 evaluable patients at 240 μg/kg, historical CR rates 25-35%): 50%
- platelet recovery (plt >50 k/mm3), median ([11]; Plerixafor + MEC, range 20-40 d): 26 days
- neutrophil recovery (ANC >500/mm3), median ([11]; Plerixafor + MEC, range 21-37): 27 days
- time of peak AML blast mobilization ([11]; after administration): 6 to 8 h
- One year KM estimate of overall survival ([11]; in vivo): 56%
- common grade 3 adverse events ([11]; in vivo): cytopenias and infections
- hyperleukocytosis ([11]; in vivo): No evidence of hyperleukocytosis
- mobilization of AML blasts into the peripheral circulation, mean increase ([11]; range 0.9-7.3 fold): 2.5 fold
- Sinus tachycardia (all Grade 1) ([12]; 400 and 480 μg/kg doses): observed in most subjects
- maximum tolerated dose ([12]; doses of up to 480 μg/kg SC and IV in healthy volunteers and cancer patients): has not been established
- common adverse events ([12]; doses up to 480 μg/kg): diarrhea, injection site erythema, perioral numbness, sinus tachycardia, headache, nausea, abdominal distention and injection site pain
- early death due to complications from intracranial hemorrhage ([13]; 1 patient): 4%
- treatment failure due to persistent disease ([13]; 1 patient): 4%
- Grade I-II GVHD ([13]; 10/27 patients): 37%
- treatment failure due to relapsed disease ([13]; 10 patients): 37%
- patients with common grade 3 adverse events ([13]; 24/27, neutropenic fever, infections, or rash): 89%
- Median progression-free survival (PFS) ([13]; all patients, 95% CI: 18.1-33.9 wks): 26.6 wks
- Grade III-IV GVHD ([13]; human, in vivo, iv): no occurrences
- toxicities ascribed to the G-CSF/Plerixafor component of the regimen ([13]; human, in vivo): no toxicities ascribed
- patients achieving a CR ([13]; of the 19 patients with active disease at study entry): 18
- platelet recovery (plt >20 k/mm3), median ([13]; range 9-74 d): 12 days
- neutrophil recovery (ANC >500/mm3), median ([13]; range 10-19): 12.5 days
- Median progression-free survival (PFS) ([13]; relapsed patients, 95% CI: 12.1-26.6 wks): 15.7 wks
- approximate human equivalent dose of early adverse neurologic effects [14]: 470-940 μg/kg
- leukemia burden in mice ([15]; added to nilotinib, vs nilotinib alone): significantly reduced
- mobilization of leukemic cells ([15]; in vivo): mobilize leukemic cells in vivo
- protein binding [16]: extensively protein bound
- Plerixafor unrelated deaths ([17]; 4 patients, 240 μg/kg): 17%
- complete response (CR) ([17]; 14 of 21 patients with available data): 67%
- DLTs ([17]; 240, 320, 400, 480 μg/kg IV): No DLTs have been reported
- patients with adverse events at least possibly related to Plerixafor ([17]; Eighteen patients): 86%
- patients with Grade 3 Plerixafor-related AEs ([17]; Four patients): 19%
- patients with Grade 4 related AEs ([17]; One patient, 480 μg/kg cohort, thrombocytopenia and asymptomatic pulmonary embolism): 5%
- time of peak PB AML blasts ([17]; day 2, after administration): 2 to 4 h
- increase in PB AML blasts, mean ([17]; day 7): 1.51 fold
- median time to neutrophil (0.5×109/L) recovery for responders ([17]; in vivo): 19.5 (range 13-35) days
- median time to platelet (100×109/L) recovery for responders ([17]; in vivo): 21 (range 17-37) days
- rise in PB AML blasts, mean increase ([17]; infusion on day 2): 3.01 fold
- severity of the majority of related adverse events ([17]; mainly gastrointestinal disorders): grade ½
- sensitivity to the tyrosine kinase inhibitors Imatinib and Nilotinib [18]: confer added sensitivity
- tumor cell chemotaxis [18]: inhibit tumor cell chemotaxis
- proportion of patients with MM able to mobilize the target (6×10^6 cells/kg) CD34+ cells ([19]; Plerixafor 240 μg/kg added to G-CSF compared with G-CSF alone): significantly increased the proportion of patients
- apheresis days to reach target ([19]; Plerixafor added to G-CSF): significantly fewer apheresis days
- anti-tumor effect of Plerixafor alone ([20]; in these experiments (leukemia models)): no detectable anti-tumor effect
- median overall survival ([20]; untreated control 18 days, cytarabine vs cytarabine+Plerixafor p<0.0006): 19 days
- MTD [21]: ~1.8 mg/kg
- mobilization of CLL cells ([22]; 80, 160, 240, 320 μg/kg, preliminary results): mobilized to the peripheral blood in a dose-dependent fashion
- tolerability of the combination of Plerixafor and rituximab ([22]; CLL patients with WBC <50×109/L): well tolerated
- dose limiting toxicities ([22]; with rituximab): no dose limiting toxicities were reported
- most common adverse events ([22]; with rituximab): nausea, fatigue, chills, and diarrhea
- remissions ([22]; with rituximab): partial remissions were seen in a proportion of patients
